For data set [1], the system named is patients with hereditary angioedema (HAE). The conditions noted are these: cited from earlier work.
The subject of data set [2] is animal model of ischemic stroke. The conditions noted are these: cited from earlier work.
Data set [3] concerns lipopolysaccharide (LPS)- or bacterial-induced sepsis in animals. The conditions noted are these: cited from earlier work.
The next data set has as its system sepsis patients. The following applies: cited from earlier work.
The next data set has as its target human plasma kallikrein (Homo sapiens (Human), UniProt P03952). As to the kind of experiment: Plasma Kallikrein Activity Assay. In kind it is biochemical. The following applies: 2 nM kallikrein, 80 μM chromogenic substrate S2302, 30° C., pH 7.8; Ki by Cheng-Prusoff equation.
Data set [4] deals with mouse model of middle cerebral artery occlusion (MCAO). The following applies: cited from earlier work.

The values that follow come from patent US10329260B2, “Human plasma kallikrein inhibitors” (BioCryst Pharmaceuticals, Inc., priority 2014, dated 2019).

As usually defined, the Ki is a measure of affinity in units of concentration, obtained from inhibition or displacement. The low end stands for a stronger hold on the target, the high end for a looser hold on the target.

Sequence of human plasma kallikrein (P03952 whole entry partner, looked up): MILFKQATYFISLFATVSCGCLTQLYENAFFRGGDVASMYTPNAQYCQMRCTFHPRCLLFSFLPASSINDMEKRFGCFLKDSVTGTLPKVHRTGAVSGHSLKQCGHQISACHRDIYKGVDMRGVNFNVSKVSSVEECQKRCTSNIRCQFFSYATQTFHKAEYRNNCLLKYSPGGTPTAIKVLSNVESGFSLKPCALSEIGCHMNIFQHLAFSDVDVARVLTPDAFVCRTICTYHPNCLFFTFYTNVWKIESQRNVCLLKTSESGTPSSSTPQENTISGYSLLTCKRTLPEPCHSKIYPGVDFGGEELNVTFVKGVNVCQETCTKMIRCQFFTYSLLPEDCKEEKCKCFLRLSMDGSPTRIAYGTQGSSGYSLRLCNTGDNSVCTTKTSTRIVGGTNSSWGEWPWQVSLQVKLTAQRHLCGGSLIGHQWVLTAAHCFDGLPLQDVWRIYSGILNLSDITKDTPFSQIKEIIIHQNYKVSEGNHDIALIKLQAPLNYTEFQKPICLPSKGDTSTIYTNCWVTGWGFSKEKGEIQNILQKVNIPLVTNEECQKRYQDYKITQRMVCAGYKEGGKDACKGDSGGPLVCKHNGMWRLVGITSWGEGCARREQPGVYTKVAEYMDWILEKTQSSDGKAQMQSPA
Sequence of human plasma kallikrein (P03952 whole entry, looked up): as the sequence (P03952 whole entry partner, looked up) above

In the case of ecallantide [DX-88], the “edema in patients with hereditary angioedema” value in data set [1] (patients with HAE) is given as “alleviates edema”. Moreover, in data set [2], the brain edema result is “reduced”, the infarct volume result was “reduced” and the neurological deficits result is “reduced”.
Turning to Cl-inhibitor, in data set [3], the lesions result is recorded as “reduce” and the “vascular permeability in multiple organs” value is given as “reduce”. In addition, the “clinical outcome in sepsis patients” value in the data set with sepsis patients is given as “Clinical improvement”.
In the case of “H-D-Pro-Phe-Arg-chloromethylketone [reference compound]”, the lesions result in data set [3] is on record as “reduce”.
In the case of `N#CCC(c1ccccc1)c1cccc(NC(=O)c2cc(C(F)(F)F)nn2-c2cccc(CN)c2)c1` (centres unmarked) [Compound 39e, 1-(3-(aminomethyl)phenyl)-N-(3-(2-cyano-1-phenylethyl)phenyl)-3-(trifluoromethyl)-1H-pyrazole-5-carboxamide], the Ki on human plasma kallikrein was greater than 100 nM.
Molecule `NC(=O)c1cccc(-n2nc(C(F)(F)F)cc2C(=O)Nc2cc(C(NCC3CC3)c3ccccc3)ccc2F)c1` (single isomer, unassigned; (-)) [Compound 230a, (−)-1-(3-carbamoylphenyl)-N-(5-((cyclopropylmethylamino)(phenyl)methyl)-2-fluorophenyl)-3-(trifluoromethyl)-1H-pyrazole-5-carboxamide] gave an inhibition constant Ki at human plasma kallikrein greater than 100 nM.
Still for that read-out and setting: to `CCCCNC(c1ccccc1)c1cccc(NC(=O)c2cc(C(F)(F)F)nn2-c2cccc(CN)c2)c1` (centres unmarked) [Compound 180b, 1-(3-(Aminomethyl)phenyl)-N-(3-((butylamino)(phenyl)methyl)phenyl)-3-(trifluoromethyl)-1H-pyrazole-5-carboxamide] belongs greater than 100 nM.
For the molecule `NCc1cccc(-n2nc(C(F)(F)F)cc2C(=O)Nc2cccc(C(CCC3CC3)N3CCOCC3)c2)c1` (centres unmarked) [Compound 93b, 1-(3-(aminomethyl)phenyl)-N-(3-(3-cyclopropyl-1-morpholinopropyl)phenyl)-3-(trifluoromethyl)-1H-pyrazole-5-carboxamide], on human plasma kallikrein, the Ki was greater than 100 nM.
Molecule `NCc1cccc(-n2nc(C(F)(F)F)cc2C(=O)Nc2cccc(C(NC3CCCCC3)c3ccccc3)c2)c1` (centres unmarked) [Compound 185b, 1-(3-(Aminomethyl)phenyl)-N-(3-((cyclohexylamino)(phenyl)methyl)phenyl)-3-(trifluoromethyl)-1H-pyrazole-5-carboxamide] came in with a Ki at human plasma kallikrein greater than 100 nM.
`CC(C)(CO)NC(c1ccccc1)c1cccc(NC(=O)c2cc(C(F)(F)F)nn2-c2cccc(CN)c2)c1` (centres unmarked) [Compound 174b, 1-(3-(aminomethyl)phenyl)-N-(3-(((1-hydroxy-2-methylpropan-2-yl)amino)(phenyl)methyl)phenyl)-3-(trifluoromethyl)-1H-pyrazole-5-carboxamide] registered an inhibitory constant (Ki) at human plasma kallikrein greater than 100 nM.
In the case of `NCc1cccc(-n2nc(C(F)(F)F)cc2C(=O)Nc2cccc(Cc3cccc(O)c3)c2)c1` [Compound 137b, 1-(3-(aminomethyl)phenyl)-N-(3-(3-hydroxybenzyl)phenyl)-3-(trifluoromethyl)-1H-pyrazole-5-carboxamide], the Ki on human plasma kallikrein was greater than 100 nM.
As for `NCc1cccc(-n2nc(C(F)(F)F)cc2C(=O)Nc2cccc(C(NCC3CCCO3)c3ccccc3)c2)c1` (centres unmarked) [Compound 175b, 1-(3-(aminomethyl)phenyl)-N-(3-(phenyl(((tetrahydrofuran-2-yl)methyl)amino)methyl)phenyl)-3-(trifluoromethyl)-1H-pyrazole-5-carboxamide], on human plasma kallikrein, the Ki is greater than 100 nM.
`NCc1cccc(-n2nc(C(F)(F)F)cc2C(=O)Nc2cccc(Oc3ccccc3)c2F)c1` [Compound 23c, 1-(3-(aminomethyl)phenyl)-N-(2-fluoro-3-phenoxyphenyl)-3-(trifluoromethyl)-1H-pyrazole-5-carboxamide] gave an inhibition constant Ki at human plasma kallikrein greater than 100 nM.
On the same count and under the same terms, the result for `O=C(Nc1cc(C(O)(CCC2CC2)c2ccccn2)ccc1F)c1cc(C(F)(F)F)nn1-c1ccc(Cl)cc1` (centres unmarked) [Compound 157a, 1-(4-chlorophenyl)-N-(5-(3-cyclopropyl-1-hydroxy-1-(pyridin-2-yl)propyl)-2-fluorophenyl)-3-(trifluoromethyl)-1H-pyrazole-5-carboxamide] reads greater than 100 nM; that for `O=C(Nc1cc(C(O)(CCC2CC2)c2ccccn2)ccc1F)c1cc(C(F)(F)F)nn1-c1ccc(Cl)cn1` (centres unmarked) [Compound 159a, 1-(5-chloropyridin-2-yl)-N-(5-(3-cyclopropyl-1-hydroxy-1-(pyridin-2-yl)propyl)-2-fluorophenyl)-3-(trifluoromethyl)-1H-pyrazole-5-carboxamide], greater than 100 nM.
Still for that read-out and setting: the result for `COC(c1ccccc1)c1ccc(F)c(NC(=O)c2cc(C(F)(F)F)nn2-c2cccc(CN)c2)c1` (centres unmarked) [Compound 25c, 1-(3-(aminomethyl)phenyl)-N-(2-fluoro-5-(methoxy(phenyl)methyl)phenyl)-3-(trifluoromethyl)-1H-pyrazole-5-carboxamide] reads greater than 100 nM; that for `CCCCCNC(c1ccccc1)c1cccc(NC(=O)c2cc(C(F)(F)F)nn2-c2cccc(CN)c2)c1` (centres unmarked) [Compound 172b, 1-(3-(Aminomethyl)phenyl)-N-(3-((pentylamino)(phenyl)methyl)phenyl)-3-(trifluoromethyl)-1H-pyrazole-5-carboxamide], greater than 100 nM.
`NC(N)=NCCC[C@@H](N)C(=O)N[C@@H](CCCN=C(N)N)C(=O)N1CCC[C@H]1C(=O)N1C[C@H](O)C[C@H]1C(=O)NCC(=O)N[C@@H](Cc1cccs1)C(=O)N[C@@H](CO)C(=O)N1Cc2ccccc2C[C@@H]1C(=O)N1[C@H](C(=O)N[C@@H](CCCN=C(N)N)C(=O)O)C[C@@H]2CCCC[C@@H]21` [Icatibant]: the “efficacy in treating HAE” value in data set [1] (HAE) was “effective”.

B1: C1-inhibitor (protein, UniProt P05155 23-500, looked up)
Plasma protease C1 inhibitor: NPNATSSSSQDPESLQDRGEGKVATTVISKMLFVEPILEVSSLPTTNSTTNSATKITANTTDEPTTQPTTEPTTQPTIQPTQPTTQLPTDSPTQPTTGSFCPGPVTLCSDLESHSTEAVLGDALVDFSLKLYHAFSAMKKVETNMAFSPFSIASLLTQVLLGAGENTKTNLESILSYPKDFTCVHQALKGFTTKGVTSVSQIFHSPDLAIRDTFVNASRTLYSSSPRVLSNNSDANLELINTWVAKNTNNKISRLLDSLPSDTRLVLLNAIYLSAKWKTTFDPKKTRMEPFHFKNSVIKVPMMNSKKYPVAHFIDQTLKAKVGQLQLSHNLSLVILVPQNLKHRLEDMEQALSPSVFKAIMEKLEMSKFQPTLLTLPRIKVTTSQDMLSIMEKLEFFDFSYDLNLCGLTEDPDLQVSAMQHQTVLELTETGVEAAAASAISVARTLLVFEVQQPFLFVLWDQQHKFPVFMGRVYDPRA
As for B1, the infarct size entry in data set [4] is reported as “reduced”.
